Reference: EPA's ToxValDB 9.5 (doi:10.2903/j.efsa.2010.1721)

Key:
Anas platyrhynchos = conditions: oral, mortality
Apis mellifera = conditions: acute; duration: 48 hours; oral; unspecified; mortality
Canidae = conditions: chronic; duration: 1 years; oral; Dog Other; organ weight
Colinus virginianus = conditions: for LD50: acute, oral, mortality
Daphnia magna = conditions: chronic/long-term; duration: 21 days; reproduction
Mus musculus = conditions: acute; oral; mortality
Oryctolagus sp. = conditions: reproduction developmental; body weight
Tagia sp. = conditions: acute; duration: 14 days; mortality
Aphidius rhopalosiphi = experiment: LR50; higher = less toxic; conditions: not reported; mortality
Typhlodromus pyri = experiment: LR50; higher = less toxic; conditions: not reported; mortality

## CCOc1ccc(NC(=O)OC(C)C)cc1OCC [Diethofencarb]
Anas platyrhynchos; acute, unspecified
  LD50: > 2250 mg/kg-day
Anas platyrhynchos; short-term, feed
  LD50: > 1630 mg/kg-day
Apis mellifera
  LD50: > 100 µg/piece
Canidae
  NOAEL: 50 mg/kg-day
Colinus virginianus; diet
  LD50: > 1810 mg/kg-day
Colinus virginianus
  LD50: > 2250 mg/kg-day
Colinus virginianus; reproduction developmental
  NOEL: 78.7 mg/kg-day
Daphnia magna
  NOEC: 0.032 mg/L
Mus musculus
  LD50: > 5000 mg/kg-day
Oncorhynchus mykiss; acute, duration: 96 hours, mortality
  LC50: > 10 mg/L
Oncorhynchus mykiss; chronic/long-term, duration: 88 days, growth
  NOEC: 0.072 mg/L
Oryctolagus sp.
  NOEL: 300 mg/kg-day
Rattus norvegicus; acute, oral, mortality
  LD50: > 5000 mg/kg-day
Rattus norvegicus; chronic, duration: 2 years, organ weight
  NOAEL: 42.7 mg/kg-day
Tagia sp.
  LC50: > 1000 mg/kg
Aphidius rhopalosiphi
  LR50: > 1500 g/ha
Typhlodromus pyri
  LR50: 7.2 g/ha
